Measured values as given in US20120021434A1, “METHOD FOR TREATING B CELL REGULATED AUTOIMMUNE DISORDERS” (Synta Pharmaceuticals Corp., priority 2005, published 2012).

Assays:
Assay type in all cases: cell-based
[1] = system: Rel-B; test: Rel-B nuclear translocation in IFNγ+LPS-stimulated THP1 cells (immunoblot); details: 100 nM, 6 h
Description: RelB and p52 are two members of Rel family, which are preferentially complexed with each other. To determine the effect of Compound 50 on p52 and Rel-B nuclear translocation, THP1 cells were stimulated with IFNγ+LPS in either the presence or absence of 100 nM Compound 50 and the distribution of p52 and Rel-B was determined by immunoblotting of nuclear at 6 h post-treatment.

[2] = system: p65; test: LPS/IFNγ-induced phosphorylation of p65 in THP1 cells (immunoblot); details: THP1, 100 nM, residues Ser-276, Ser-468 and Ser-927
Description: In this study, we examined the effect of Compound 50 on LPS-induced phosphorylation of the NF-κB members p65 and p105/p50. THP1 monocytic cells were stimulated with IFNγ plus LPS in the presence or absence of 100 nM Compound 50 (30 min, 1 h and 3 h) and whole-cell extracts were immunoblotted using anti-phospho p65 and p105/p50 antibodies to detect the phosphorylated forms of these proteins. […] LPS/IFNγ induced phosphorylation of p65 as early as 30 minutes on residues Ser-276, Ser-468 and […]. Compound 50 had no effect on LPS/IFNγ induced phosphorylation at these sites. […] LPS/IFNγ induced phosphorylation of p105 as early as 30 minutes on residues Ser-927 and Ser-933. Compound 50 had no effect on LPS/IFNγ induced phosphorylation at these sites.

[3] = system: NF-κB p65; test: Immunofluorescence of p65 nuclear accumulation in LPS-stimulated RAW264.7 cells; details: RAW264.7, LPS 5 μg/mL, 100 nM, 4 hours
Description: (§1) We next examined whether compound 50 can block the accumulation of c-Rel in the nucleus of cells induced by LPS (FIG. 2). RAW264.7 cells cultured in DMEM with 10% BCS were split and seeded into 4-well chambered slides at 80,000 cells/well density. The cells were then treated with DMSO, Compound 50 (100 nM), LPS (Sigma, 5 μg/mL), LPS (5 μg/mL)+Compound 50 (100 nM) for 4 hours and fixed with 3% paraformaldehyde solution (1×PBS) after 1× quick rinse with 1×PBS. Fixed cells were permeablized with 0.2% TX100 and immunostained with anti-cRel antibody (SC70, Santa Cruz, 1:200 dilution) or anti-NF-κB p65 antibody (SC109, Santa Cruz, 1:100 dilution), and subsequently stained with Alexa Fluor 488 Goat-anti-Rabbit secondary antibody and DAPI (Molecular Probes, 1.1 μM). Images were obtained with CoolSNAP monochrome CCD camera on a Nikon inverted microscope TE300 using identical imaging parameters and were processed identically with Photoshop CS software. As observed previously, c-Rel localized to the cytoplasm in DMSO-treated cells and to the nucleus in LPS-treated cells. […] We also examined whether Compound 50 blocks the nuclear accumulation of another NF-κB/Rel family member, p65, in LPS-stimulated RAW cells (FIG. 3). As observed for c-Rel, p65 was localized to the cytoplasm in DMSO and Compound 50-treated cells and to the nucleus in LPS-stimulated cells. […]

[4] = system: IκBβ; test: Inducible degradation of IκBβ (Western blot and FACS); details: IFN-γ/LPS or IFN-γ/SAC, 500 nM, 30 min and 2 hrs
Description: (§2) IκB degradation is one of the steps in the signaling pathway of NF-κB dependent genes. The activity of Compound 50 in inducible degradation of IκBα and IκBβ was investigated in THP-1 cells using Western blot and FACS analysis. […] Similar results were observed from the Compound 50 pre-treatment samples in which Compound 50 was added 30 min before stimulation.

[5] = system: IκBα; test: Inducible degradation of IκBα (Western blot and FACS); details: IFN-γ/LPS or IFN-γ/SAC, 500 nM, 30 min and 2 hrs
Description: as §2

[6] = system: IKKβ; test: Phosphorylation of IKKβ in IFNγ/LPS-stimulated THP-1 cells (immunoblot); details: THP-1 whole cell extracts, IFNγ/LPS 5 min to 1 hr, 500 nM
Description: The whole cell extracts were prepared using Cell Lysis Buffer (Cell Signaling, Beverly, Mass., USA) according to the manufacture's instruction.
The phosphorylation of IKK is an early step in NF-κB activation. To determine whether Compound 50 inhibits the activation of the IKK complex, the level of phosphorylated IKKβ was investigated in drug-treated, LPS-stimulated cells. Whole cell extracts were prepared from THP-1 cells that had been stimulated with IFNγ/LPS for 5 min, 15 min 30 min and 1 hr in the either the absence or presence of 500 nM Compound 50. Phosphorylated IKKβ was determined by immunoblot analysis using an anti-phospho IKKβ antibody. […] Compound 50 treatment had no effect on the induction of phosphorylated IKKβ.

[7] = target: T1, c-Rel (Homo sapiens, UniProt Q04864); test: Nuclear c-Rel in PMA+ionomycin stimulated Jurkat T cells (immunoblot); details: 100 nM
T1 construct: a western blot assay of THP1 nuclear c-Rel, p50 and p65 proteins was carried out; endogenous in cells; host or cells: THP-1; Jurkat
T1 sequence (Q04864 1-619): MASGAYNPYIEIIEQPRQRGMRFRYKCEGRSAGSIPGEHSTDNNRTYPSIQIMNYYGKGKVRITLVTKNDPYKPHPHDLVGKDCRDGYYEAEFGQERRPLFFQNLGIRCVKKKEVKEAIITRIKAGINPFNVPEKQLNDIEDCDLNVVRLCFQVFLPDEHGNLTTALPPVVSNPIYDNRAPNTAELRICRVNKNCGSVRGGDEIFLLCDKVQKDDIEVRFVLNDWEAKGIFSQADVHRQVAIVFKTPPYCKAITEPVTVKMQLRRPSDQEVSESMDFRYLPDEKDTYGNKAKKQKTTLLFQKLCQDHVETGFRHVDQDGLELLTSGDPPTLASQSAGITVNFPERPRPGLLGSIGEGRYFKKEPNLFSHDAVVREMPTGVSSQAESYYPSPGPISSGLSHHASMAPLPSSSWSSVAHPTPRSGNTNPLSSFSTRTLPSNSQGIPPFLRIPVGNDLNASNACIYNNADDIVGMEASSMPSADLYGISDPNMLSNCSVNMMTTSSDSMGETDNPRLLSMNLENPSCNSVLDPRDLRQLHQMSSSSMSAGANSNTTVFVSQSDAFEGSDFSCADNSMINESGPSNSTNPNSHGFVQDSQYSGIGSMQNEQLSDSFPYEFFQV
Excerpt: We therefore examined the accumulation of nuclear c-Rel in these cells by immunoblot analysis.

[8] = target: T2, c-Rel (Mus musculus, UniProt P15307); test: Immunofluorescence of c-Rel nuclear accumulation in LPS-stimulated RAW264.7 cells; details: 100 nM
T2 construct: nuclear extracts from RAW cells stimulated with LPS/IFNγ; endogenous in cells; host or cells: RAW264.7
Description: as §1

[9] = system: IL-2; test: Induction of IL-2 in PMA+ionomycin stimulated Jurkat T cells; details: previously shown

T2 sequence (P15307 whole entry): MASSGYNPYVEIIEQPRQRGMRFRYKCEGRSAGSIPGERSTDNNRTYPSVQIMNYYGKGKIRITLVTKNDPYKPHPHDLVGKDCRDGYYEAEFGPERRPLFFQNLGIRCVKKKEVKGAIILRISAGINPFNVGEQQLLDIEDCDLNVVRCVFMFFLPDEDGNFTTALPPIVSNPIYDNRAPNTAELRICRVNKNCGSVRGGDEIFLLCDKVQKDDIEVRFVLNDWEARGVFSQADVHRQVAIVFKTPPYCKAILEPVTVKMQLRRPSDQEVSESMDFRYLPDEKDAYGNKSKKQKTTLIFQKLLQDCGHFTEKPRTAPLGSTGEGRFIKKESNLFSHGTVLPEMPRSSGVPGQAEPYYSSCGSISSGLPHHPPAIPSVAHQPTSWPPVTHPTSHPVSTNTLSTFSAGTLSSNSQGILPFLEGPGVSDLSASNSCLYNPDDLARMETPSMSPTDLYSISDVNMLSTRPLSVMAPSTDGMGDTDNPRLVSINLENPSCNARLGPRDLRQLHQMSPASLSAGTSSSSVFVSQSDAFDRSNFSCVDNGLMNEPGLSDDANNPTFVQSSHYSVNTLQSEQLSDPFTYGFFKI

levels of nuclear c-Rel [7]: reduced | LPS-induced accumulation of c-Rel in the nucleus ([8]; RAW264.7, LPS 5 μg/mL, 4 hours): inhibited | nuclear/cytoplasmic distribution of c-Rel ([8]; RAW264.7, absence of LPS, 4 h): did not alter
Compound: Cc1cccc(/C=N/Nc2cc(N3CCOCC3)nc(OCCc3ccccn3)n2)c1 [Compound 50, N-(3-Methyl-benzylidene)-N′-[6-morpholin-4-yl-2-(2-pyridin-2-yl-ethoxy)-pyrimidin-4-yl]-hydrazine]
nuclear Rel-B [1]: slightly increased | LPS/IFNγ induced phosphorylation of p65 [2]: no effect | LPS-induced p65 nuclear accumulation [3]: not blocked | amount of IκBβ in the cytoplasm, with vs without compound [4]: no significant difference | amount of IκBα in the cytoplasm, with vs without compound [5]: no significant difference | induction of phosphorylated IKKβ [6]: no effect | induction of the c-Rel dependent cytokine IL-2 [9]: impairs
